Values joined by “and” are separate entries in the source; they are usually repeats but may differ in a detail not shown here. Identical values can stand only once.
Assay: xn = mol fraction of the nth substance listed

O=[N+]([O-])c1ccccc1 + CCCCCO
293.15 K, 101.33 kPa
Details	viscosity [mPa·s]
x2 = 0.0258	1.964
x2 = 0.0556	1.924
x2 = 0.104	1.867
x2 = 0.18	1.856
x2 = 0.204	1.86
x2 = 0.2635	1.899
x2 = 0.2976	1.918
x2 = 0.3319	1.938
x2 = 0.3827	2.003
x2 = 0.4677	2.104
x2 = 0.6694	2.475
x2 = 0.8217	2.982

CC=Cc1ccc(O)c(OC)c1 + CCCCCOC(C)=O
298.15 K, 101 kPa
Details	viscosity [mPa·s]
x1 = 0.062	0.92
x1 = 0.119	1.06

CC(C)CCl + CCCCO
viscosity [mPa·s], 101.33 kPa
Details	x1 = 0.1061	x1 = 0.207	x1 = 0.3058	x1 = 0.4036	x1 = 0.4999	x1 = 0.6059	x1 = 0.7007	x1 = 0.7972	x1 = 0.8971
298.15 K	1.981	1.554	1.233	0.9932	0.8229	0.6801	0.5857	0.515	0.4612
313.15 K	1.395	1.121	0.9144	0.7548	0.6405	0.5441	0.4768	0.4261	0.3888

CCCCCCC + CCCCO
viscosity [mPa·s]
Details	298.15 K	308.15 K
100 kPa, x2 = 0.1602	0.4667	–
100 kPa, x2 = 0.3421	0.6085	–
100 kPa, x2 = 0.5006	0.8545	–
100 kPa, x2 = 0.6598	1.191	–
100 kPa, x2 = 0.8398	1.747	–
101.33 kPa, x2 = 0.077	0.421	0.3698
101.33 kPa, x2 = 0.1523	0.456	0.392
101.33 kPa, x2 = 0.2853	0.5468	0.4571
101.33 kPa, x2 = 0.4094	0.667	0.5432
101.33 kPa, x2 = 0.5024	0.787	0.6232
101.33 kPa, x2 = 0.6136	0.9824	0.7769
101.33 kPa, x2 = 0.7055	1.204	0.9444
101.33 kPa, x2 = 0.7866	1.453	1.136
101.33 kPa, x2 = 0.8595	1.751	1.363
101.33 kPa, x2 = 0.8998	1.942	1.515
101.33 kPa, x2 = 0.9352	2.144	1.666
101.33 kPa, x2 = 0.9675	2.342	1.821

CCCCCCCC + CCCCO
298.15 K, 101.33 kPa
Details	viscosity [mPa·s]
x1 = 0.0832	2.013
x1 = 0.1173	1.84
x1 = 0.1519	1.681
x1 = 0.2113	1.443
x1 = 0.304	1.152
x1 = 0.3599	1.017
x1 = 0.4942	0.788
x1 = 0.6053	0.676
x1 = 0.7044	0.615
x1 = 0.8459	0.555

CCCCCO + CCCCO
viscosity [mPa·s], 101.33 kPa
Details	x2 = 0.1315	x2 = 0.278	x2 = 0.4762	x2 = 0.5662	x2 = 0.8222	x2 = 0.9381
293.15 K	3.867	3.7	3.489	3.392	3.127	3.013
298.15 K	3.353	3.232	3.038	2.959	2.738	2.642

CN(C)C=O + CCCCO
Details	viscosity [mPa·s]
298.15 K, 101 kPa, x1 = 0.5035	1.381

ClC(Cl)=C(Cl)Cl + CCCCO
Details	viscosity [mPa·s]
298.15 K, 101.3 kPa, x1 = 0.6759	1.045

O=[N+]([O-])c1ccccc1 + CCCCO
viscosity [mPa·s]
Details	298.15 K	303.15 K	308.15 K	318.15 K
101 kPa, x1 = 0.2	–	–	1.58	1.27
101 kPa, x1 = 0.4	–	–	1.411	1.128
101 kPa, x1 = 0.6	–	–	1.339	1.109
101 kPa, x1 = 0.8	–	–	1.35	1.147
101 kPa, x1 = 0.9	–	–	1.403	1.196
101 kPa, x1 = 0.95	–	–	1.453	1.252
101.33 kPa, x1 = 0.0625	2.311	2.075	–	–
101.33 kPa, x1 = 0.1311	2.142	1.878	–	–
101.33 kPa, x1 = 0.2051	1.954	1.739	–	–
101.33 kPa, x1 = 0.2885	1.814	1.611	–	–
101.33 kPa, x1 = 0.376	1.711	1.559	–	–
101.33 kPa, x1 = 0.4747	1.65	1.423	–	–
101.33 kPa, x1 = 0.5846	1.589	1.446	–	–
101.33 kPa, x1 = 0.7007	1.625	1.476	–	–
101.33 kPa, x1 = 0.8442	1.658	1.509	–	–

c1ccccc1 + CCCCO
Details	viscosity
293.15 K, 101.33 kPa, x2 = 0.2	0.714 mPa·s and 0.714 mPa·s
293.15 K, 101.33 kPa, x2 = 0.4	0.898 mPa·s
293.15 K, 101.33 kPa, x2 = 0.5	1.054 mPa·s and 1.054 mPa·s
293.15 K, 101.33 kPa, x2 = 0.6	1.279 mPa·s
293.15 K, 101.33 kPa, x2 = 0.8	1.92 mPa·s
298.15 K, 101 kPa, x1 = 0.082	2.158 mPa·s
298.15 K, 101 kPa, x1 = 0.151	1.88 mPa·s
298.15 K, 101 kPa, x1 = 0.254	1.511 mPa·s
298.15 K, 101 kPa, x1 = 0.345	1.277 mPa·s
298.15 K, 101 kPa, x1 = 0.52	0.919 mPa·s
298.15 K, 101 kPa, x1 = 0.678	0.754 mPa·s
298.15 K, 101 kPa, x1 = 0.841	0.63 mPa·s
298.15 K, 101 kPa, x1 = 0.915	0.601 mPa·s
298.15 K, 101 kPa, x2 = 0.05	0.604 mPa·s
298.15 K, 101 kPa, x2 = 0.1	0.62 mPa·s
298.15 K, 101 kPa, x2 = 0.16	0.64 mPa·s
298.15 K, 101 kPa, x2 = 0.21	0.664 mPa·s
298.15 K, 101 kPa, x2 = 0.41	0.842 mPa·s
298.15 K, 101 kPa, x2 = 0.51	1.006 mPa·s
298.15 K, 101 kPa, x2 = 0.61	1.178 mPa·s
298.15 K, 101 kPa, x2 = 0.81	1.684 mPa·s
298.15 K, 101.33 kPa, x2 = 0.2	0.655 mPa·s
298.15 K, 101.33 kPa, x2 = 0.216	0.657 mPa·s
298.15 K, 101.33 kPa, x2 = 0.409	0.824 mPa·s
298.15 K, 101.33 kPa, x2 = 0.604	1.119 mPa·s
298.15 K, 101.33 kPa, x2 = 0.808	1.71 mPa·s
303 K, 101.3 kPa, x1 = 0.1035	1.9 mPa·s
303 K, 101.3 kPa, x1 = 0.2024	1.601 mPa·s
303 K, 101.3 kPa, x1 = 0.3037	1.344 mPa·s
303 K, 101.3 kPa, x1 = 0.4	1.145 mPa·s
303 K, 101.3 kPa, x1 = 0.5047	0.9759 mPa·s
303 K, 101.3 kPa, x1 = 0.5931	0.8562 mPa·s
303 K, 101.3 kPa, x1 = 0.7016	0.7412 mPa·s
303 K, 101.3 kPa, x1 = 0.766	0.6921 mPa·s
303 K, 101.3 kPa, x1 = 0.8859	0.611 mPa·s
303.15 K, 101 kPa, x1 = 0.082	1.918 mPa·s
303.15 K, 101 kPa, x1 = 0.151	1.668 mPa·s
303.15 K, 101 kPa, x1 = 0.254	1.354 mPa·s
303.15 K, 101 kPa, x1 = 0.345	1.145 mPa·s
303.15 K, 101 kPa, x1 = 0.52	0.838 mPa·s
303.15 K, 101 kPa, x1 = 0.678	0.694 mPa·s
303.15 K, 101 kPa, x1 = 0.841	0.587 mPa·s
303.15 K, 101 kPa, x1 = 0.915	0.564 mPa·s
303.15 K, 101.33 kPa, x2 = 0.2	0.604 mPa·s
303.15 K, 101.33 kPa, x2 = 0.4	0.746 mPa·s
303.15 K, 101.33 kPa, x2 = 0.5	0.864 mPa·s
303.15 K, 101.33 kPa, x2 = 0.6	1.021 mPa·s
303.15 K, 101.33 kPa, x2 = 0.8	1.49 mPa·s
308.15 K, 101 kPa, x1 = 0.082	1.702 mPa·s
308.15 K, 101 kPa, x1 = 0.151	1.49 mPa·s
308.15 K, 101 kPa, x1 = 0.254	1.209 mPa·s
308.15 K, 101 kPa, x1 = 0.345	1.032 mPa·s
308.15 K, 101 kPa, x1 = 0.52	0.764 mPa·s
308.15 K, 101 kPa, x1 = 0.678	0.64 mPa·s
308.15 K, 101 kPa, x1 = 0.841	0.549 mPa·s
308.15 K, 101 kPa, x1 = 0.915	0.529 mPa·s
308.15 K, 101.33 kPa, x2 = 0.2	0.562 mPa·s and 0.562 mPa·s
308.15 K, 101.33 kPa, x2 = 0.216	0.564 mPa·s
308.15 K, 101.33 kPa, x2 = 0.4	0.687 mPa·s
308.15 K, 101.33 kPa, x2 = 0.409	0.691 mPa·s
308.15 K, 101.33 kPa, x2 = 0.5	0.791 mPa·s and 0.791 mPa·s
308.15 K, 101.33 kPa, x2 = 0.6	0.924 mPa·s
308.15 K, 101.33 kPa, x2 = 0.604	0.911 mPa·s
308.15 K, 101.33 kPa, x2 = 0.8	1.335 mPa·s
308.15 K, 101.33 kPa, x2 = 0.808	1.353 mPa·s
313.15 K, 101 kPa, x1 = 0.082	1.51 mPa·s
313.15 K, 101 kPa, x1 = 0.151	1.336 mPa·s
313.15 K, 101 kPa, x1 = 0.254	1.086 mPa·s
313.15 K, 101 kPa, x1 = 0.345	0.934 mPa·s
313.15 K, 101 kPa, x1 = 0.52	0.702 mPa·s
313.15 K, 101 kPa, x1 = 0.678	0.593 mPa·s
313.15 K, 101 kPa, x1 = 0.841	0.513 mPa·s
313.15 K, 101 kPa, x1 = 0.915	0.494 mPa·s
318.15 K, 101 kPa, x1 = 0.082	1.351 mPa·s
318.15 K, 101 kPa, x1 = 0.151	1.195 mPa·s
318.15 K, 101 kPa, x1 = 0.254	0.979 mPa·s
318.15 K, 101 kPa, x1 = 0.345	0.847 mPa·s
318.15 K, 101 kPa, x1 = 0.52	0.645 mPa·s
318.15 K, 101 kPa, x1 = 0.678	0.553 mPa·s
318.15 K, 101 kPa, x1 = 0.841	0.48 mPa·s
318.15 K, 101 kPa, x1 = 0.915	0.465 mPa·s

CCCCC(C)=O + CCCCOC(C)=O
298.15 K, 101.33 kPa
Details	viscosity [mPa·s]
x2 = 0.1073	0.595
x2 = 0.1861	0.601
x2 = 0.3117	0.611
x2 = 0.4115	0.62
x2 = 0.5224	0.63
x2 = 0.6318	0.64
x2 = 0.7471	0.649
x2 = 0.8669	0.663

CCCCCCCCCCCCCC + CCCCOC(C)=O
298.15 K, 101.3 kPa
Details	viscosity [mPa·s]
x2 = 0.1284	1.825
x2 = 0.2404	1.622
x2 = 0.3362	1.467
x2 = 0.4227	1.339
x2 = 0.5018	1.23
x2 = 0.5367	1.183
x2 = 0.5715	1.142
x2 = 0.6959	0.9335
x2 = 0.8024	0.8736
x2 = 0.8903	0.7842
x2 = 0.948	0.7283

O=[N+]([O-])c1ccccc1 + CCCCOC(C)=O
viscosity [mPa·s], 101 kPa
Details	298.15 K	308.15 K
x2 = 0.0477	1.576	1.399
x2 = 0.151	1.23	1.152
x2 = 0.2493	1.006	0.979
x2 = 0.35	0.848	0.849
x2 = 0.4488	0.743	0.755
x2 = 0.5	0.704	0.717
x2 = 0.5514	0.672	0.685
x2 = 0.6512	0.632	0.637
x2 = 0.7484	0.616	0.607
x2 = 0.8504	0.622	0.591
x2 = 0.9435	0.648	0.589

From the CheMixHub viscosity set
